According to US20210023074A1, “TREATMENT OF DEMYELINATING DISEASES” (Victoria Link Ltd., priority 2018, published 2021):

Tests used:
Assay type in all cases: in vivo, C57BL/6 mice
[1] = tested on: cuprizone-induced demyelination in mice; assay: Cuprizone demyelination disease model, TEM of corpus callosum, g-ratio; settings: 0.3% cuprizone diet, 0.01 mg/kg i.p. daily from day 28, day 70
Experimental: Experimental details: A demyelinating disease state was induced in female C57BL/6 mice (8-14 weeks old and between 17-23 grams in weight). The mice were fed cuprizone-containing chow (0.3% (w/w) cuprizone) or chow only (normal controls) for 35 days, at which point they were switched back to standard chow. At day 28, mice were started on daily treatment with vehicle only (DMSO: Tween 80: Saline) or nalmefene at 0.01 mg/kg by i.p. injection. On day 70, mice were culled and brain tissue were processed for transmission electron microscopy (TEM). Mice were weighed daily and the % weight change calculated.
Experimental details: A demyelinating disease state was induced in female C57BL/6 mice as described in FIG. 19A. FIGS. 19A-C show representative Transmission Electron Microscopy (TEM) images of the corpus callosum of mice (A) fed normal diet and (B-C) fed 0.3% cuprizone to induce demyelination. Following the time course described in FIG. 19A, cuprizone fed mice were administered (B) vehicle only treatment, and (C) nalmefene (0.01 mg/kg/i.p.) and then sacrificed on experimental day 70. Scale bars represent 2000 nm.
Mice fed a normal diet have a mean g-ratio of 0.78±0.09 in contrast to mice fed 0.3% cuprizone that have a significant increase in g-ratio of 0.84±0.1 corresponding to the decreased myelin thickness (####p<0.0001). […] Data represents measurements of 5 TEM images of the corpus callosum from 2-3 mice per treatment group and g-ratios calculated (a measure of myelin thickness) using Image J software. Analysis was performed by individuals blinded to treatment groups. (n=200-400 axons per treatment group). All data analysed by one-way ANOVA followed by Turkeys multiple comparisons test.

[2] = tested on: experimental autoimmune encephalomyelitis (EAE) mice; assay: EAE model of MS, daily disease score (paralysis), treatment from day 17
Experimental: Experimental detail: Female, C57BL/6 mice were immunized subcutaneously (s.c.) in the hind flanks to induce EAE using myelin oligodendrocyte glycoprotein (MOG) peptide 35-55 (50 μg/mouse) in complete Freund's adjuvant containing heat-killed Mycobacterium tuberculosis (500 μg/mouse). In addition, pertussis toxin (200 ng/mouse) was administered intraperitoneally (i.p.) on days 0 and 2. Mice were weighed and scored daily. On day 17 (dotted line), mice were started on daily treatment with vehicle only (Veh; 10% tween and 10% DMSO in saline) or Nalmefene (NaIM) at 0.1, 0.03, or 0.01 mg/kg by i.p. injection. Nalmefene was supplied by University of Kansas, Synthetic Chemical Biology Core Laboratory, 97.6% pure by HPLC). Treatment allocation was blinded. The disease was scored from 0-5 with 0 (normal), 1 (partial tail paralysis), 2 (full tail paralysis), 3 (one hind limb paralysed or severe disability in both hind limbs), 4 (complete paralysis of both hind limbs) and 5 (moribund). This model is a standard disease model for multiple sclerosis and is described in White et al. 2018. Scientific Reports. 8:259 which is incorporated herein by reference in its entirety. Shown are results combined from 2 independent experiments. ****p<0.0001 by one-way ANOVA with Dunnett's multiple comparison test.
Experimental detail: EAE was induced in female C57BL/6 mice as described in Example 1. On day 17, mice were started on daily treatment with vehicle only (Veh) or nalmefene (NaIM) at 0.1 or 0.03 mg/kg by i.p. injection. The area under the curve (AUC) was calculated for each mouse based upon the daily disease score and represents the total disability experienced. Shown are results from 1 representative experiment. *p<0.05 by one-way ANOVA with Dunnett's multiple comparison test.
Experimental detail: EAE was induced in female C57BL/6 mice as described in Example 1. On day 17 (dotted line), mice were started on daily treatment with vehicle only (Veh) or nalmefene (NaIM) at 0.1 or 0.03 mg/kg by i.p. injection. Shown are mice that were not sick at the time of treatment but developed disease later. *p<0.05 by two-way ANOVA with Holm-Sidak's multiple comparison test.

[3] = tested on: myelin in spinal cord of EAE mice; assay: TEM of spinal cord sections from EAE mice (myelination); settings: 0.03 mg/kg i.p. daily from day 17, day 45
Experimental: Experimental detail: EAE was induced in female C57BL/6 mice as described in Example 1. On day 17, mice were started on daily treatment with vehicle only or nalmefene at 0.03 mg/kg by i.p. injection. On day 45 after immunization to induce EAE, mice were culled and spinal cords were processed for transmission electron microscopy (TEM).

[4] = tested on: experimental autoimmune encephalomyelitis (EAE) mice; assay: EAE model of MS, disease score, treatment from day of disease onset (score >1)
Experimental: Experimental detail: EAE was induced in female C57BL/6 mice as described in Example 1. On the day of disease onset (score >1, dotted line), mice were started on daily treatment with vehicle only (Veh) or nalmefene (NaIM) at 0.1, 0.03, 0.01, or 0.003 mg/kg by i.p. injection. […]
(§1) Experimental detail: EAE was induced in female C57BL/6 mice as described in Example 1. On the day of disease onset (score >1, dotted line), mice were treated with vehicle only (daily), nalmefene (0.01 mg/kg by i.p. injection daily), the KOR antagonist norBNI (10 mg/kg by i.p. injection weekly), both nalmefene and norBNI, or the MOR antagonist BFNA (10 mg/kg by i.p. injection weekly).
as §1, with “weekly). The peak disease score during the first EAE episode was recorded, and mice were considered recovered if they received a score <0.5 by day 23 post treatment initiation.” for “weekly).”
Experimental detail: EAE was induced in female C57BL/6 mice as described in Example 1.

[5] = treated prior to disease onset, 0.1 or 0.03 mg/kg i.p. daily from day 17
[6] = 0.01 mg/kg i.p. daily from disease onset
[7] = 0.003-0.1 mg/kg i.p. daily from disease onset

C=C1CC[C@@]2(O)[C@H]3Cc4ccc(O)c5c4[C@@]2(CCN3CC2CC2)[C@H]1O5 [nalmefene, (4R,4aS,7aS,12bS)-3-(cyclopropylmethyl)-7-methylidene-2,4,5,6,7a,13-hexahydro-1H-4,12-methanobenzofuro[3,2-e]isoquinoline-4a,9-diol]
axonal-myelin structure and remyelination (TEM) [1]: more normal axonal-myelin structure and organisation, and increased remyelination | g-ratio (measure of myelin thickness), corpus callosum [1]: 0.791±0.01 | g-ratio compared to vehicle [1]: significantly lower g-ratio compared to vehicle only treated | disease score (recovery from paralysis) ([2]; 0.1, 0.03 or 0.01 mg/kg i.p. daily from day 17, 45 days): reduction of disease in all nalmefene-treated groups indicates recovery from paralysis | reduction in disease (total disability, AUC of daily disease score) ([2]; 0.1 and 0.03 mg/kg i.p. daily from day 17, by day 45): 70% | total disability (AUC of disease score) ([2]; 0.1 or 0.03 mg/kg i.p. daily from day 17, by day 45): significantly lower total disability | onset of disease [2, 5]: did not alter the onset of disease | recovery from paralysis (disease score) [2, 5]: rapid recovery from paralysis | myelination of nerve axons in spinal cord (TEM) [3]: nerve axons appear healthy and well myelinated | disease score (recovery from paralysis) [4, 6]: recovery from paralysis, which is complete | peak disease score during first EAE episode [4, 6]: modest but significant effect | percentage of mice recovered (score <0.5 by day 23 post treatment initiation) [4, 6]: all of the mice recover | number of days in recovery [4, 7]: enables a sustained functional recovery | percentage of mice recovered (score <0.5 by day 23 post treatment initiation) [4, 7]: enables full functional recovery | dose showing the most rapid recovery ([4]; i.p. daily from disease onset, replicated in 6 independent experiments): 0.01 mg/kg | disease score ([4]; nalmefene 0.01 mg/kg i.p. daily in the presence of norBNI 10 mg/kg i.p. weekly): effective at reducing disease independently of the KOR | number of days in recovery (sustained recovery) ([4]; nalmefene 0.01 mg/kg i.p. daily, clemastine fumerate 10 mg/kg i.p.): sustained recovery | disease score (functional recovery), comparison nalmefene vs clemastine ([4]; nalmefene 0.01 mg/kg i.p. daily, clemastine fumerate 10 mg/kg i.p., from disease onset): almost complete recovery from paralysis
